# Assay results published in patent publication US20260125372A1, “DYNAMIN-1-LIKE PROTEIN INHIBITORS AND USES THEREOF” (Astellas Engineered Small Molecules US, Incorporated, priority 2022, published 2026).
# Molecular target: T1, DRP1 (Homo sapiens, UniProt O00429)
# T1 construct: Human DRIP1 (UniProtID: O00429.4, residues 1-699); made in house; host or cells: Escherichia coli BL21 CodonPlus DE3
# Test: AlphaLISA assay (His-DRP1 / MiD49-GST interaction)
# Assay type: binding
# Conditions: His-DRP1 200 nM, MiD49-GST 20 nM, GMP-PNP 100 uM
# Experimental: Human DRIP1 (UniProtID: O00429.4, residues 1-699), and human MiD49 (UnitProtIS: Q96C03.1, residues 126-454) was cloned into a pET15b vector as an N-terminal His-tag Fusion. All constructs were transformed in Escherichia coli host strain BL21 CodonPlus DE3. Bacteria was grown in LB media with 100 μg/ml ampicillin and 34 μg/ml chloramphenicol in an orbital shaker at 37° C. until OD600 reached 0.4, at which temperature was reduced to 16° C. Recombinant protein expression was expressed for 18 hr by the addition of IPTG at OD600 of about 0.8. All cultures were spun down and bacterial pellets were used for protein purification.
# For His-DRP1, the pellets were resuspended in DRP-buffer A (20 mM Tris, 500 KCl, 1.89 β-ME, pH 8.0) and protease inhibitor cocktail (Roche), followed by cell disruption by sonication (400 W, pulse 3 sec on, 3 sec off, total 20 min). The lysate was centrifuged at 20,000 g and then supernatant applied to a preequilibrated Ni-NTA column with DRP-buffer A. The column was extensively washed with buffer A containing 50 mM imidazole. Purified His-DRP1 was eluted with DRP-buffer A containing 250 mM imidazole and dialyzed overnight at 4° C. (18 kDa cutoff) against DRP-buffer A to remove imidazole. For AlphaLISA, the His tag was retained on DRP1 full-length.
# For MiD49-GST, the bacterial pellets were resuspended and sonicated in MID lysis buffer (25 mM Tris-HCl, pH 7.5, 500 mM NaCl, 5% glycerol, 1 mM TCEP, and 0.5% CHAPS). The lysate was pre-cleared at 20,300 g before applying to a glutathione column. Unbound proteins were washed using MID-buffer A (25 mM Tris-HCl, pH 7.5, 300 mM NaCl, 5% glycerol, 1 mM TCEP) and MID-buffer B (25 mM Tris-HCl, pH 7.5, 300 mM NaCl, 5% glycerol, 1 mM TCEP, 1 mM GSH). The protein was eluted with MID-buffer C (25 mM Tris-HCl, pH 7.5, 300 mM NaCl, 5% glycerol, 1 mM TCEP, 10 mM GSH). The target protein was concentrated in the ultra-filtration tube with MW cutoff 30 kDa and further purified by size-exclusion chromatography on a Superdex-200 column (GE Healthcare) in buffer A. Fractions containing MiD49-GST (126-454) were pooled, concentrated, flash-frozen as single-use aliquots in liquid nitrogen and stored at −80° C.
# A total of 100 nl of compounds were plated in a 384-well AlphaPlate (PerkinElmer, Waltham, MA) at concentrations 100 uM to […] in DMSO (dilution by 3.165 for 11 concentration levels). Recombinant His-DRP1 (200 nM), MiD49-GST (20 nM), and GMP-PNP (100 uM) were mixed in assay buffer (PBS with 1.5% BSA, 1 mM DTT). Five microliters of the protein mixture were added to the plate and incubate at room temperature for 30 min. Glutathione donor beads and nickel chelate acceptor beads were diluted and mixed in assay buffer to obtain 40 μg/ml of each bead. Five microliters of the mixed beads were added to each well on the microplate leading to a final bead concentration of 20 µg/ml per well. The sealed plate was incubated at room temperature for 60 min and protected from light. The AlphaLISA signal was detected with an EnVision Multilabel Reader (excitation at 680 and emission 615 nm). GraphPad Prism was used to calculate the IC50 by applying sigmoidal dose-response fit (variable slope).
# T1 sequence (O00429 1-699 isoform O00429-4): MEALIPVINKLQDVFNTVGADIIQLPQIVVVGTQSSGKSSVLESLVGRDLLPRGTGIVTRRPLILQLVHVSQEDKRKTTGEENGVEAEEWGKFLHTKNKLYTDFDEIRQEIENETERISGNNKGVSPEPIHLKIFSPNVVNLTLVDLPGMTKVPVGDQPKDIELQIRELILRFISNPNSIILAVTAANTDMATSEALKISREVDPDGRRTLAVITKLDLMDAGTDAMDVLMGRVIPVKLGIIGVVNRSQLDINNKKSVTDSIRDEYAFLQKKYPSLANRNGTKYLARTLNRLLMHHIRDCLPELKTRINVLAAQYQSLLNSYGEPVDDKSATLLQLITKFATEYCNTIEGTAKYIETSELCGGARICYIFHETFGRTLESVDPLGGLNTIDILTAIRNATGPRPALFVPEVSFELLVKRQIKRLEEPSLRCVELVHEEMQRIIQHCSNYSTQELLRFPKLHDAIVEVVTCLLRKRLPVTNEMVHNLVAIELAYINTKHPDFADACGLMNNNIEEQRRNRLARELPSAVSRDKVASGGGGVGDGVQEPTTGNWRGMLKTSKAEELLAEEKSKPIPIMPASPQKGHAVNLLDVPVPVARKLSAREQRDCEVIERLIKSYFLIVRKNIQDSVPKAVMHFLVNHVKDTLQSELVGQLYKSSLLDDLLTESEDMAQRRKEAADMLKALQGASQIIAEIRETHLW
row,SMILES,IC50 [µM]
1,"COCCOc1cc(-c2cncs2)nc2ccc(NC(=O)[C@@H](C)O)cc12 [Example 15, (R)-2-hydroxy-N-(4-(2-methoxyethoxy)-2-(thiazol-5-yl)quinolin-6-yl)propanamide]",1 to 10
2,"COCCOc1cc(-c2cncs2)nc2ccc(NC(=O)COC)cc12 [Example 21, 2-methoxy-N-(4-(2-methoxyethoxy)-2-(thiazol-5-yl)quinolin-6-yl)acetamide]",1 to 10
3,"COCCOc1cc(-c2cncs2)nc2ccc(NC(=O)[C@H](C)O)cc12 [Example 14, (S)-2-hydroxy-N-(4-(2-methoxyethoxy)-2-(thiazol-5-yl)quinolin-6-yl)propanamide]",1 to 10
4,"COCCOc1cc(-c2cncs2)nc2ccc(NC(=O)C3CC(F)(F)C3)cc12 [Example 30, 3,3-difluoro-N-(4-(2-methoxyethoxy)-2-(thiazol-5-yl)quinolin-6-yl)cyclobutane-1-carboxamide]",1 to 10
5,"O=C(Nc1ccc2nc(-c3cncs3)cc(OCCO)c2c1)C1COC1 [Example 9, N-(4-(2-hydroxyethoxy)-2-(thiazol-5-yl)quinolin-6-yl) oxetane-3-carboxamide]",< 0.5
6,"COCCOc1cc(-c2cncs2)nc2ccc(NC(=O)[C@H]3C[C@@H](OC)C3)cc12 [Example 33, cis-3-methoxy-N-(4-(2-methoxyethoxy)-2-(thiazol-5-yl)quinolin-6-yl)cyclobutane-1-carboxamide]",< 0.5
7,"O=C(Nc1ccc2nc(-c3cncs3)cc(OCCO)c2c1)C(F)(F)F [Example 10, 2,2,2-trifluoro-N-(4-(2-hydroxyethoxy)-2-(thiazol-5-yl)quinolin-6-yl)acetamide]",1 to 10
8,"CCOc1cc(-n2cnc(C)c2)nc2ccc(NC(=O)C3COC3)cc12 [Example 2, N-(4-ethoxy-2-(4-methyl-1H-imidazol-1-yl)quinolin-6-yl)oxetane-3-carboxamide]",< 0.5
9,"CCOC(C)C(=O)Nc1ccc2nc(-c3cncs3)cc(OCCOC)c2c1 (centres unmarked) [Example 26, 2-ethoxy-N-(4-(2-methoxyethoxy)-2-(thiazol-5-yl)quinolin-6-yl)propanamide]",< 0.5
10,"COCCOc1cc(-c2cncs2)nc2ccc(NC(=O)[C@@H]3C[C@H]3C#N)cc12 (racemic) [Example 19, trans-2-cyano-N-(4-(2-methoxyethoxy)-2-(thiazol-5-yl)quinolin-6-yl)cyclopropane-1-carboxamide]",0.5 to 1
11,"COCCOc1cc(-c2cncs2)nc2ccc(NC(=O)C(C)C#N)cc12 (centres unmarked) [Example 28, 2-cyano-N-(4-(2-methoxyethoxy)-2-(thiazol-5-yl)quinolin-6-yl)propanamide]",< 0.5
12,"COCCOc1cc(-c2cnc(C)s2)nc2ccc(NC(=O)C3COC3)cc12 [Example 11, N-(4-(2-methoxyethoxy)-2-(2-methylthiazol-5-yl)quinolin-6-yl)oxetane-3-carboxamide]",0.5 to 1
13,"CCOc1cc(-c2cnc(C3CC3)s2)nc2ccc(NC(=O)C3COC3)cc12 [Example 8, N-(2-(2-cyclopropylthiazol-5-yl)-4-ethoxyquinolin-6-yl) oxetane-3-carboxamide]",0.5 to 1
14,"COCCOc1cc(-c2cncs2)nc2ccc(NC(=O)C34CC(C3)C4)cc12 [Example 31, N-(4-(2-methoxyethoxy)-2-(thiazol-5-yl)quinolin-6-yl)bicyclo[1.1.1]pentane-1-carboxamide]",1 to 10
15,"COCCOc1cc(-c2cncs2)nc2ccc(NC(=O)CCOC)cc12 [Example 24, 3-methoxy-N-(4-(2-methoxyethoxy)-2-(thiazol-5-yl)quinolin-6-yl)propanamide]",0.5 to 1
16,"COc1cc(-c2cncs2)nc2ccc(NC(=O)C3COC3)cc12 [Example 5, N-(4-methoxy-2-(thiazol-5-yl)quinolin-6-yl) oxetane-3-carboxamide]",0.5 to 1
17,"COCCOc1cc(-c2cncs2)nc2ccc(NC(=O)CO)cc12 [Example 13, 2-hydroxy-N-(4-(2-methoxyethoxy)-2-(thiazol-5-yl)quinolin-6-yl) acetamide]",1 to 10
18,"CCOc1cc(-c2cncs2)nc2ccc(NC(=O)C3COC3)cc12 [Example 3, N-(4-ethoxy-2-(thiazol-5-yl)quinolin-6-yl)oxetane-3-carboxamide]",< 0.5
19,"COCCOc1cc(-c2cncs2)nc2ccc(NC(=O)C3(OC)CC3)cc12 [Example 29, 1-methoxy-N-(4-(2-methoxyethoxy)-2-(thiazol-5-yl)quinolin-6-yl)cyclopropane-1-carboxamide]",> 10
20,"COCCOc1cc(-c2cncs2)nc2ccc(NC(=O)C3COC3)cc12 [Example 1, N-(4-(2-methoxyethoxy)-2-(thiazol-5-yl)quinolin-6-yl)oxetane-3-carboxamide]",< 0.5
21,"CCOc1cc(-c2cncs2)nc2ccc(NC(=O)C34CC(C3)C4)cc12 [Example 4, N-(4-ethoxy-2-(thiazol-5-yl)quinolin-6-yl)bicyclo[1.1.1]pentane-1-carboxamide]",0.5 to 1
22,"COCCOc1cc(-c2cncs2)nc2ccc(NC(=O)C(F)(F)CO)cc12 [Example 27, 2,2-difluoro-3-hydroxy-N-(4-(2-methoxyethoxy)-2-(thiazol-5-yl)quinolin-6-yl)propanamide]",0.5 to 1

# More lines, now with the values ahead:
row,IC50 [µM],SMILES
1,1 to 10,"COCC(C)(C)Oc1cc(-c2cncs2)nc2ccc(NC(=O)C3COC3)cc12 [Example 39, N-(4-((1-methoxy-2-methylpropan-2-yl)oxy)-2-(thiazol-5-yl)quinolin-6-yl)oxetane-3-carboxamide]"
2,1 to 10,"COC[C@@H](C)Oc1cc(-c2cncs2)nc2ccc(NC(=O)C(C)C#N)cc12 (stereo partly drawn) [Example 49, 2-cyano-N-(4-(((R)-1-methoxypropan-2-yl)oxy)-2-(thiazol-5-yl)quinolin-6-yl)propanamide]"
3,> 10,"COCCOc1cc(-c2cncs2)nc2ccc(NC(=O)[C@H]3C[C@H](OC)C3)cc12 [Example 34, trans-3-methoxy-N-(4-(2-methoxyethoxy)-2-(thiazol-5-yl)quinolin-6-yl)cyclobutane-1-carboxamide]"
4,< 0.5,"COCCOc1cc(-c2cncs2)nc2ccc(NC(=O)[C@H](C)OC)cc12 [Example 36, (S)-2-methoxy-N-(4-(2-methoxyethoxy)-2-(thiazol-5-yl)quinolin-6-yl)propanamide]"
5,1 to 10,"COC[C@H](C)Oc1cc(-c2cncs2)nc2ccc(NC(=O)[C@H](C)OC)cc12 [Example 50, (S)-2-methoxy-N-(4-(((S)-1-methoxypropan-2-yl)oxy)-2-(thiazol-5-yl)quinolin-6-yl)propanamide]"
6,1 to 10,"COC[C@@H](C)Oc1cc(-c2cncs2)nc2ccc(NC(=O)C3COC3)cc12 [Example 52, (R)—N-(4-((1-methoxypropan-2-yl)oxy)-2-(thiazol-5-yl)quinolin-6-yl)oxetane-3-carboxamide]"
7,1 to 10,"O=C(Nc1ccc2nc(-n3ccnc3)cc(OCCO)c2c1)C1COC1 [Example 42, N-(4-(2-hydroxyethoxy)-2-(1H-imidazol-1-yl)quinolin-6-yl)oxetane-3-carboxamide]"
8,0.5 to 1,"COCCOc1cc(-c2cnn(C)c2)nc2ccc(NC(=O)C3COC3)cc12 [Example 53, N-(4-(2-methoxyethoxy)-2-(1-methyl-1H-pyrazol-4-yl)quinolin-6-yl)oxetane-3-carboxamide]"
9,0.5 to 1,"COC[C@H](C)Oc1cc(-c2cncs2)nc2ccc(NC(=O)C(C)C#N)cc12 (stereo partly drawn) [Example 48, 2-cyano-N-(4-(((S)-1-methoxypropan-2-yl)oxy)-2-(thiazol-5-yl)quinolin-6-yl)propanamide]"
10,1 to 10,"CCOc1cc(-n2cnc(C)c2)nc2c(C)cc(NC(=O)C3COC3)cc12 [Example 54, N-(4-ethoxy-8-methyl-2-(4-methyl-1H-imidazol-1-yl)quinolin-6-yl)oxetane-3-carboxamide]"
